Experimental data: US20260184706A1, “PHENYLSULFONAMIDE DERIVATIVES, PREPARATION METHOD THEREFOR, AND PHARMACEUTICAL COMPOSITION FOR PREVENTION OR TREATMENT OF CANCER CONTAINING SAME AS ACTIVE INGREDIENT” (Korea Research Institute of Chemical Technology, priority 2022, published 2026)

Experiments:
[1] = molecular target: T1, recombinant human PERK protein (Homo sapiens, UniProt Q9NZJ5); test: PKR-like endoplasmic reticulum kinase (PERK) inhibitory capacity, 33P-ATP filter assay; assay type: biochemical; conditions: 15 uM [gamma-33P-ATP], 40 minutes, room temperature
T1 sequence (Q9NZJ5 30-1116): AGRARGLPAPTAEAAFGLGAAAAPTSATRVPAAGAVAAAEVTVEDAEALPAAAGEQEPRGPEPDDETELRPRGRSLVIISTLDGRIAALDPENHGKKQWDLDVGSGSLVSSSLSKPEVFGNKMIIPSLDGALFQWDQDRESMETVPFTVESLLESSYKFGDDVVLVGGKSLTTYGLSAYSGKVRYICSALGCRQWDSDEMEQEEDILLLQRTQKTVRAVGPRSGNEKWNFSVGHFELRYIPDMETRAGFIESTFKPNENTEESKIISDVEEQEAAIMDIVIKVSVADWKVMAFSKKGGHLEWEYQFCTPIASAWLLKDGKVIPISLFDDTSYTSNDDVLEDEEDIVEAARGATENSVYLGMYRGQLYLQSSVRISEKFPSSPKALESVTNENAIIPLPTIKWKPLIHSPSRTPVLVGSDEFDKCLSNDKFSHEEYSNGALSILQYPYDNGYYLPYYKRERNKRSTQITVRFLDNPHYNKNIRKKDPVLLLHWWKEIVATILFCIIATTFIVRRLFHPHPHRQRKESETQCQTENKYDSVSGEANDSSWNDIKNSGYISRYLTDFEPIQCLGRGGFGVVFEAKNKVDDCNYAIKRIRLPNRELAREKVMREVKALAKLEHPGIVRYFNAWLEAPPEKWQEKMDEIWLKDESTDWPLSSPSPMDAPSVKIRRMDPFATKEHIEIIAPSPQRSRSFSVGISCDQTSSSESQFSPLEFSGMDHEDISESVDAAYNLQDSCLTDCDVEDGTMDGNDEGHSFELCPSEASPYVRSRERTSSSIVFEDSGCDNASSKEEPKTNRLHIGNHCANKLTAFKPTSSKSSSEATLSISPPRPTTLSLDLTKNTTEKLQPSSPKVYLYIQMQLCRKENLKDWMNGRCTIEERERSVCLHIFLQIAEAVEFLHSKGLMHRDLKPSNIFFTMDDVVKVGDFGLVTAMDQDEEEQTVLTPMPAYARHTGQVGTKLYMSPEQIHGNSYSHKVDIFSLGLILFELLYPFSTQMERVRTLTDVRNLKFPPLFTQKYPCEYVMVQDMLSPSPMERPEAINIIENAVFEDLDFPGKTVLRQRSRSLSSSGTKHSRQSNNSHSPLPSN

[2] = molecular target: recombinant human PKR protein (Homo sapiens, UniProt P19525); test: Protein kinase R (PKR) inhibitory capacity, 33P-ATP filter assay; assay type: biochemical; conditions: 15 uM [gamma-33P-ATP], 40 minutes, room temperature
recombinant human PKR protein, sequence (P19525 whole entry): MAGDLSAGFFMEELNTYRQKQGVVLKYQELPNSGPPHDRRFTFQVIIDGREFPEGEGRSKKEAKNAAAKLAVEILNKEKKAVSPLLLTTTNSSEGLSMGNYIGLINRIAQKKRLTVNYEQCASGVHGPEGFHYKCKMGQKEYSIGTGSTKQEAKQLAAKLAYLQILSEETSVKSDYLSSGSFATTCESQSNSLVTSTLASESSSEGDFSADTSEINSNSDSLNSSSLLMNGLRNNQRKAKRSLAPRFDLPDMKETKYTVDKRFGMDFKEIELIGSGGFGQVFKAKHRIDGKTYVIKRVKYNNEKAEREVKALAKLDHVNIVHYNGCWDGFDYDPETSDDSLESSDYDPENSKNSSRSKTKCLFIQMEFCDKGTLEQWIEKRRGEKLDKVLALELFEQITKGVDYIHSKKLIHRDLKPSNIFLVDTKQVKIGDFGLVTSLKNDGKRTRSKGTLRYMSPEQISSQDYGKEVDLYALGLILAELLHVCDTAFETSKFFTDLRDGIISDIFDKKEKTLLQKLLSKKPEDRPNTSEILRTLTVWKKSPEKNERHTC
Protocol: <Experimental Example 4> Evaluation of Protein Kinase R (PKR) Inhibitory Capacity
A recombinant human PKR protein was mixed with the compound in a reaction solution (8 mM MOPS pH 7.0, 0.2 mM EDTA, 20 uM RSRSRSRSRSRSRSR, 10 mM Magnesium acetate, 15 uM [gamma-33P-ATP]) and reacted at room temperature for 40 minutes. Then, the reaction was terminated by adding phosphoric acid (0.5%) to the reaction mixture, and 10 ul of the reaction solution was dropped onto a P30 filter. The filter was washed four times in a 0.425% phosphoric acid solution for 4 minutes, then washed once more in methanol, dried, and the PKR activity was measured by scintillation counting. […] The compound was diluted by 1/3 from the highest concentration of 1 uM and treated with a total of 9 concentrations to evaluate the degree of inhibition.

Compound | IC50 [1] [nM] | IC50 [2] [nM]
COc1ncc(Cl)cc1S(=O)(=O)Nc1ccc(F)c(-n2cc(C(F)F)c3nc(N)ncc3c2=O)c1F [Example 22, N-(3-(2-amino-8-(difluoromethyl)-5-oxopirido[4,3-d]pyrimidin-6(5H)-yl)-2,4-difluorophenyl)-5-chloro-2-methoxypyridine-3-sulfonamide] | < 100 | 300 to 1000
Nc1ncc2c(=O)n(-c3c(F)ccc(NS(=O)(=O)c4cc(Cl)cnc4Cl)c3F)ccc2n1 [Example 27, N-(3-(2-amino-5-oxopirido[4,3-d]pyrimidin-6(5H)-yl)-2,4-difluorophenyl)-2,5-dichloropyridine-3-sulfonamide] | < 100 | > 1000
Nc1ncc2c(=O)n(-c3c(F)ccc(NS(=O)(=O)c4cccc5ccccc45)c3F)ccc2n1 [Example 29, N-(3-(2-amino-5-oxopirido[4,3-d]pyrimidin-6(5H)-yl)-2,4-difluorophenyl)naphthalene-1-sulfonamide] | < 100 | 100 to 300
CNc1ncc2c(=O)n(-c3c(F)ccc(NS(=O)(=O)c4cc(Cl)cnc4OC)c3F)ccc2n1 [Example 32, 5-chloro-N-(2,4-difluoro-3-(2-(methylamino)-5-oxopirido[4,3-d]pyrimidin-6(5H)-yl)phenyl)-2-methoxypyridine-3-sulfonamide] | < 100 | > 1000
COc1ncc(Cl)cc1S(=O)(=O)Nc1ccc(F)c(-n2c(=O)c3cnc(N)nc3n(C)c2=O)c1F [Example 44, N-(3-(7-amino-1-methyl-2,4-dioxo-1,4-dihydropyrimido[4,5-d]pyrimidin-3(2H)-yl)-2,4-difluorophenyl)-5-chloro-2-methoxypyridine-3-sulfonamide] | < 100 | 300 to 1000
COc1ncc(Br)cc1S(=O)(=O)Nc1ccc(F)c(-n2c(=O)c3cnc(N)nc3n(C)c2=O)c1F [Example 46, N-(3-(7-amino-1-methyl-2,4-dioxo-1,4-dihydropyrimido[4,5-d]pyrimidin-3(2H)-yl)-2,4-difluorophenyl)-5-bromo-2-methoxypyridine-3-sulfonamide] | < 100 | 300 to 1000
